Measurements taken from patent US20220062240A1, “METHODS OF TREATING CANCER USING A CLK INHIBITOR” (BioSplice Therapeutics, Inc., priority 2018, published 2022).
Where two headings read alike, the source gives them in different places. One block for each compound: values may come before it.

Experiments:
CLK2 = target: T1, CLK2 (Homo sapiens, UniProt P49760); experiment: CLK2 kinase activity assay (Z-lyte, Ser/Thr 6 peptide); format: biochemical; settings: recombinant CLK2 kinase, ATP 60 μM; read-out: EC50
T1 construct: purchased Thermo Fisher (Life Technologies), Z'-LYTE Kinase Assay Kits
Protocol: All reactions were performed in duplicate.

BT-549 = experiment: CellTiter-Glo Viability Assay, breast cancer; format: cell-based; settings: Homo sapiens, 96 h; BT-549, breast cancer, four days; read-out: EC50
CAMA1 = experiment: CellTiter-Glo Viability Assay, breast cancer; format: cell-based; settings: Homo sapiens, CAMA-1, 96 h; CAMA1, breast cancer, four days; read-out: EC50
DU4475 = experiment: CellTiter-Glo Viability Assay, breast cancer; format: cell-based; settings: Homo sapiens, DU-4475, 96 h; DU4475, breast cancer, four days; read-out: EC50
HCC1599 = experiment: CellTiter-Glo Viability Assay, breast cancer; format: cell-based; settings: Homo sapiens, 96 h; HCC1599, breast cancer, four days; read-out: EC50
MCF7 = experiment: CellTiter-Glo Viability Assay, breast cancer; format: cell-based; settings: Homo sapiens, 96 h; MCF7, breast cancer, four days; read-out: EC50
MDA-MB-231-Luc = experiment: CellTiter-Glo Viability Assay, breast cancer; format: cell-based; settings: Homo sapiens, 96 h; MDA-MB-231-Luc, breast cancer, four days; read-out: EC50
T47D = experiment: CellTiter-Glo Viability Assay, breast cancer; format: cell-based; settings: Homo sapiens, 96 h, breast cancer, four days, read-out: EC50
ZR-75-1 = experiment: CellTiter-Glo Viability Assay, breast cancer; format: cell-based; settings: Homo sapiens, 96 h; ZR-75-1, breast cancer, four days; read-out: EC50
all 50 cell lines = experiment: CellTiter-Glo Viability Assay, average across all cell lines; format: cell-based; settings: Homo sapiens; across all 50 cell lines; read-out: average EC50 for inhibition of cancer cell proliferation
In short: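 Luminescent ATP read-out (CellTiter-Glo) after a 4-day compound exposure at 37° C served as the viability measure. Cells were seeded at 300-3,000/well, compound wells run in duplicate against DMSO controls, and EC50 values came from fitted dose-response curves.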

[1] = test system: colorectal cancer (6 cell lines); experiment: CellTiter-Glo Viability Assay, colorectal cancer; format: cell-based; settings: Homo sapiens, inhibition of cancer cell proliferation
[2] = test system: haematopoietic & lymphoid tumors (13 cell lines); experiment: CellTiter-Glo Viability Assay, haematopoietic & lymphoid tumors; format: cell-based; settings: Homo sapiens, inhibition of cancer cell proliferation
[3] = test system: liver cancer (3 cell lines); experiment: CellTiter-Glo Viability Assay, liver cancer; format: cell-based; settings: Homo sapiens, inhibition of cancer cell proliferation
[4] = test system: lung cancer (4 cell lines); experiment: CellTiter-Glo Viability Assay, lung cancer; format: cell-based; settings: Homo sapiens, inhibition of cancer cell proliferation
[5] = test system: ovarian cancer (4 cell lines); experiment: CellTiter-Glo Viability Assay, ovarian cancer; format: cell-based; settings: Homo sapiens, inhibition of cancer cell proliferation
[6] = test system: pancreatic cancer (8 cell lines); experiment: CellTiter-Glo Viability Assay, pancreatic cancer; format: cell-based; settings: Homo sapiens, inhibition of cancer cell proliferation
[7] = test system: prostate cancer (5 cell lines); experiment: CellTiter-Glo Viability Assay, prostate cancer; format: cell-based; settings: Homo sapiens
CLK3 = CLK3 (Homo sapiens, UniProt P49761); experiment: CLK3 kinase activity assay (Z-lyte, Ser/Thr 18 peptide)
[8] = HCT-116, HCT116 cell line, read-out: Colorectal cancer, EC50 (μM) HCT116
[9] = HT-29, HT29 cell line, read-out: Colorectal cancer, EC50 (μM) HT29
[10] = SW-620, SW620 cell line, read-out: Colorectal cancer, EC50 (μM) SW620
[11] = DLD-1 cell line, read-out: Colorectal cancer, EC50 (μM) DLD-1
[12] = SW48 cell line, read-out: Colorectal cancer, EC50 (μM) SW48
[13] = SW480 cell line, read-out: Colorectal cancer, EC50 (μM) SW480
[14] = DND41, DND-41 cell line, read-out: Haematopoietic & Lymphoid tumors, EC50 (μM) DND-41
[15] = MV4-11, MV-4-11 cell line, read-out: Haematopoietic & Lymphoid tumors, EC50 (μM) MV-4-11
[16] = Rec1, REC-1 cell line, read-out: Haematopoietic & Lymphoid tumors, EC50 (μM) REC-1
[17] = SU-DHL-4, SUDHL4 cell line, read-out: Haematopoietic & Lymphoid tumors, EC50 (μM) SUDHL4
[18] = HL-60 cell line, read-out: Haematopoietic & Lymphoid tumors, EC50 (μM) HL-60
[19] = JM1 cell line, read-out: Haematopoietic & Lymphoid tumors, EC50 (μM) JM1
[20] = JURKAT, Clone E6-1 cell line, read-out: Haematopoietic & Lymphoid tumors, EC50 (μM) JURKAT, Clone E6-1
[21] = JeKo-1 cell line, read-out: Haematopoietic & Lymphoid tumors, EC50 (μM) JeKo-1
[22] = KASUMI-1 cell line, read-out: Haematopoietic & Lymphoid tumors, EC50 (μM) KASUMI-1
[23] = Loucy cell line, read-out: Haematopoietic & Lymphoid tumors, EC50 (μM) Loucy
[24] = MOLT-4 cell line, read-out: Haematopoietic & Lymphoid tumors, EC50 (μM) MOLT-4
[25] = TF-1 cell line, read-out: Haematopoietic & Lymphoid tumors, EC50 (μM) TF-1
[26] = TOLEDO cell line, read-out: Haematopoietic & Lymphoid tumors, EC50 (μM) TOLEDO
[27] = SNU-398, SNU398 cell line, read-out: Liver cancer, EC50 SNU398
[28] = HEPG2 cell line, read-out: Liver cancer, EC50 HEPG2
[29] = PLC/PRF/5 cell line, read-out: Liver cancer, EC50 PLC/PRF/5
[30] = A-427, A427 cell line, read-out: Lung cancer, EC50 (μM) A427
[31] = HCC78, HCC-78 cell line, read-out: Lung cancer, EC50 (μM) HCC-78
[32] = NCI-H460 cell line, read-out: Lung cancer, EC50 (μM) NCI-H460
[33] = NCI-H522 cell line, read-out: Lung cancer, EC50 (μM) NCI-H522
[34] = PA-1, PA1 cell line, read-out: Ovarian cancer, EC50 (μM) PA1
[35] = TOV112D, TOV-112D cell line, read-out: Ovarian cancer, EC50 (μM) TOV-112D
[36] = OV-90 cell line, read-out: Ovarian cancer, EC50 (μM) OV-90
[37] = OVCAR-3 cell line, read-out: Ovarian cancer, EC50 (μM) OVCAR-3
[38] = BXPC-3, BxPC3 cell line, read-out: Pancreatic cancer, EC50 BxPC3
[39] = CAPAN-1, Capan1 cell line, read-out: Pancreatic cancer, EC50 Capan1
[40] = Capan-2, Capan2 cell line, read-out: Pancreatic cancer, EC50 Capan2
[41] = MIA PaCa-2 cell line, read-out: Pancreatic cancer, EC50 MIA PaCa-2
[42] = PANC 05.04 cell line, read-out: Pancreatic cancer, EC50 PANC 05.04
[43] = PANC-1 cell line, read-out: Pancreatic cancer, EC50 PANC-1
[44] = UPAFII cell line, read-out: Pancreatic cancer, EC50 UPAFII
[45] = DU-145, read-out: Prostate cancer EC50 Du-145
[46] = PC-3, PC3 cell line, inhibition of cancer cell proliferation, read-out: Prostate cancer EC50 PC3
[47] = 22Rv1 cell line, inhibition of cancer cell proliferation, read-out: Prostate cancer EC50 22Rv1
[48] = LNCap clone FGC cell line, inhibition of cancer cell proliferation, read-out: Prostate cancer EC50 LNCap clone FGC
[49] = VCaP (Sigma) cell line, inhibition of cancer cell proliferation, read-out: Prostate cancer EC50 VCaP (Sigma)

Chain of CLK3 (P49761 whole entry): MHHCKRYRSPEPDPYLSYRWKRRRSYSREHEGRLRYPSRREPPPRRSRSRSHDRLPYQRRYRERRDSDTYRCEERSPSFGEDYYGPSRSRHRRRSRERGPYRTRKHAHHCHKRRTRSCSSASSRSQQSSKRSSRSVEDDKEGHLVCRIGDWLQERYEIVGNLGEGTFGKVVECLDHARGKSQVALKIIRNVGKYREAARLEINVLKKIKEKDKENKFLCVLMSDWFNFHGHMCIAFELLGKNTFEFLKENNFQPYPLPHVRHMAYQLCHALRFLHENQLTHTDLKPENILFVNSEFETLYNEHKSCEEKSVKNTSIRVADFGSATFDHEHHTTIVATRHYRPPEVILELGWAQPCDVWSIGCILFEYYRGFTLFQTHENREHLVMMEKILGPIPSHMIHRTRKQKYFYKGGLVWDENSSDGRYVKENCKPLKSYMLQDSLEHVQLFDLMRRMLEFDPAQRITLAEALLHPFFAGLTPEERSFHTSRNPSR
T1 sequence (P49760 whole entry): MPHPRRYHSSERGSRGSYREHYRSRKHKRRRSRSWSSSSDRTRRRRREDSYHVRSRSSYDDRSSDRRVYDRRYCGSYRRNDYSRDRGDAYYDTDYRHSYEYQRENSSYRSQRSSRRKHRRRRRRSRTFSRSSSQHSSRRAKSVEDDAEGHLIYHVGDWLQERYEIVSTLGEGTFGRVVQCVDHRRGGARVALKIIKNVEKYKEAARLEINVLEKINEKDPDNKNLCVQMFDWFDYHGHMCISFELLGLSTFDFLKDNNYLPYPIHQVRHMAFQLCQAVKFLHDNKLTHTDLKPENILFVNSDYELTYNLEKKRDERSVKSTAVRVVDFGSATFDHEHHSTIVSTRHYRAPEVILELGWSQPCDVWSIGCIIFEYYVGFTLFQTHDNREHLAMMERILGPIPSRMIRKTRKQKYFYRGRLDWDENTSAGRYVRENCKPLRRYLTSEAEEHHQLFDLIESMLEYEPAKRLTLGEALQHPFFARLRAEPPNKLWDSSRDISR

EC50 (CLK2): 2.4 nM | EC50 (BT-549): 731 nM | EC50 (CAMA1): 1340 nM | EC50 (DU4475): 247 nM | EC50 (HCC1599): 38 nM | EC50 (MCF7): 3700 nM | EC50 (MDA-MB-231-Luc): 2700 nM | EC50 (T47D): 4960 nM | EC50 (ZR-75-1): 2920 nM | EC50 [1, 8]: 0.318 µM | EC50 [1, 9]: 1.2 µM | EC50 [1, 10]: 0.156 µM | EC50 [1, 11]: 0.264 µM | EC50 [1, 12]: 0.147 µM | EC50 [1, 13]: 0.644 µM | EC50 [2, 14]: 0.221 µM | EC50 [2, 15]: 0.032 µM | EC50 [2, 16]: 0.149 µM | EC50 [2, 17]: 0.241 µM | EC50 [2, 18]: 1.54 µM | EC50 [2, 19]: 0.062 µM | EC50 [2, 20]: 0.298 µM | EC50 [2, 21]: 0.139 µM | EC50 [2, 22]: 0.11 µM | EC50 [2, 23]: 0.28 µM | EC50 [2, 24]: 0.381 µM | EC50 [2, 25]: 0.789 µM | EC50 [2, 26]: 0.108 µM | EC50 [3, 27]: 71 nM | EC50 [3, 28]: 3290 nM | EC50 [3, 29]: 3350 nM | EC50 [4, 30]: 0.502 µM | EC50 [4, 31]: 1.44 µM | EC50 [4, 32]: 0.919 µM | EC50 [4, 33]: 0.097 µM | EC50 [5, 34]: 0.768 µM | EC50 [5, 35]: 0.421 µM | EC50 [5, 36]: 2.86 µM | EC50 [5, 37]: 0.291 µM | EC50 [6, 38]: 660 nM | EC50 [6, 39]: 583 nM | EC50 [6, 40]: 1120 nM | EC50 [6, 41]: 267 nM | EC50 [6, 42]: 3470 nM | EC50 [6, 43]: 1900 nM | EC50 [6, 44]: 511 nM | EC50 [7, 45]: 654 nM | EC50 [7, 46]: 860 nM | EC50 [7, 47]: 348 nM | EC50 [7, 48]: 4690 nM | EC50 [7, 49]: 756 nM | EC50 (CLK3): 10.3 nM
SMILES: CN1CCN(c2cc(Nc3ncc4c(-c5ccc6ncccc6c5)c[nH]c4n3)ccn2)CC1 [Compound 67]
EC50 (all 50 cell lines): 1070 nM

EC50 (CLK2): 0.6 nM | EC50 (BT-549): 421 nM | EC50 (CAMA1): 901 nM | EC50 (DU4475): 487 nM | EC50 (HCC1599): 224 nM | EC50 (MCF7): 1820 nM | EC50 (MDA-MB-231-Luc): 1110 nM | EC50 (T47D): 1180 nM | EC50 (ZR-75-1): 1370 nM | EC50 [1, 8]: 0.389 µM | EC50 [1, 9]: 0.774 µM | EC50 [1, 10]: 0.206 µM | EC50 [1, 11]: 0.35 µM | EC50 [1, 12]: 0.19 µM | EC50 [1, 13]: 0.546 µM | EC50 [2, 14]: 0.571 µM | EC50 [2, 15]: 0.07 µM | EC50 [2, 16]: 0.162 µM | EC50 [2, 17]: 0.523 µM | EC50 [2, 18]: 0.958 µM | EC50 [2, 19]: 0.165 µM | EC50 [2, 20]: 0.561 µM | EC50 [2, 21]: 0.176 µM | EC50 [2, 22]: 0.257 µM | EC50 [2, 23]: 0.317 µM | EC50 [2, 24]: 0.546 µM | EC50 [2, 25]: 0.649 µM | EC50 [2, 26]: 0.183 µM | EC50 [3, 27]: 134 nM | EC50 [3, 28]: 597 nM | EC50 [3, 29]: 1270 nM | EC50 [4, 30]: 0.506 µM | EC50 [4, 31]: 1.14 µM | EC50 [4, 32]: 0.709 µM | EC50 [4, 33]: 0.277 µM | EC50 [5, 34]: 0.537 µM | EC50 [5, 35]: 0.327 µM | EC50 [5, 36]: 1.48 µM | EC50 [5, 37]: 0.232 µM | EC50 [6, 38]: 443 nM | EC50 [6, 39]: 811 nM | EC50 [6, 40]: 1650 nM | EC50 [6, 41]: 279 nM | EC50 [6, 42]: 1040 nM | EC50 [6, 43]: 903 nM | EC50 [6, 44]: 435 nM | EC50 [7, 45]: 652 nM | EC50 [7, 46]: 602 nM | EC50 [7, 47]: 449 nM | EC50 [7, 48]: 651 nM | EC50 [7, 49]: 1380 nM | EC50 (CLK3): 13.6 nM
SMILES: CN1CCC(Oc2ccc(C(=O)Nc3cc4cc(-c5cnn(C)c5)ccc4cn3)cc2)CC1 [Compound 68]
EC50 (all 50 cell lines): 632 nM
